Data from article PMC12630350, “Direct coupling of lactate oxidation with butyryl-CoA formation via a canonical electron transfer flavoprotein in Fusobacterium nucleatum” (The Journal of Biological Chemistry, 2025).

Molecular target: T1, ETFFN (EtfAB, FN1533-FN1534) (Fusobacterium polymorphum, UniProt A0A1Z3CIN2+A0A1Z3CJK5)
T1 construct: gene CBG50_09400; heterodimer, His6 tag on N-terminus of EtfB; EtfA 34,980 Da, tagged EtfB 30,560 Da; E. coli BL21(DE3)
T1 sequence (A0A1Z3CIN2 1-322): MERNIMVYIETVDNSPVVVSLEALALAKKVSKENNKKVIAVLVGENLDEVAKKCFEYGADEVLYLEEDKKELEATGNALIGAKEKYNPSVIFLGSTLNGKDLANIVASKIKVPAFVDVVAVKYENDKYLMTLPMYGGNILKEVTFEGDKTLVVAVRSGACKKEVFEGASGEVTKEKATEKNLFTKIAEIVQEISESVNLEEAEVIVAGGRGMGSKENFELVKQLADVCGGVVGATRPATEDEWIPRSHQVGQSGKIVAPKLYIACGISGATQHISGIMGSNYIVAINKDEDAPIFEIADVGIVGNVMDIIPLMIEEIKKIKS
T1 sequence (A0A1Z3CJK5 1-259): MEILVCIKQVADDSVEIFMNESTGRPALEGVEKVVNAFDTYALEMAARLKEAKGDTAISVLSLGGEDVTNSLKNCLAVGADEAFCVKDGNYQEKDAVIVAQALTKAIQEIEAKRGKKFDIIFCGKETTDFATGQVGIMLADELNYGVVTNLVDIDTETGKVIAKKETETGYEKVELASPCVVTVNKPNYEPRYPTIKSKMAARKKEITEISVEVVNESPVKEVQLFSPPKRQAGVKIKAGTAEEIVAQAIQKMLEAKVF
Assay: UV-visible spectrum; FAD released by heat denaturation
Format: binding
Conditions: copurified; FAD in alpha-subunit; FAD to protein ratio determined

SMILES: Cc1cc2nc3c(=O)[nH]c(=O)nc-3n(C[C@H](O)[C@H](O)[C@H](O)COP(=O)(O)OP(=O)(O)OC[C@H]3O[C@@H](n4cnc5c(N)ncnc54)[C@H](O)[C@@H]3O)c2cc1C [FAD]
- UV-visible spectrum; FAD released by heat denaturation: diagnostic of the FAD cofactor
